Legend:
[1] = molecular target: T1, UGT2B17 (Homo sapiens, UniProt O75795); experiment: Inhibition of recombinant UGT-catalyzed 4-MU glucuronidation; format: biochemical; conditions: pH 7.4, probe 4-methylumbelliferone (4-MU), 2000 μM, 100 μM compound, 4-MU probe substrate, negative = activation
T1 construct: purchased BD Gentest Corp. (Woburn, MA, USA); host or cells: baculovirus-infected insect cells
T1 sequence (O75795 24-530): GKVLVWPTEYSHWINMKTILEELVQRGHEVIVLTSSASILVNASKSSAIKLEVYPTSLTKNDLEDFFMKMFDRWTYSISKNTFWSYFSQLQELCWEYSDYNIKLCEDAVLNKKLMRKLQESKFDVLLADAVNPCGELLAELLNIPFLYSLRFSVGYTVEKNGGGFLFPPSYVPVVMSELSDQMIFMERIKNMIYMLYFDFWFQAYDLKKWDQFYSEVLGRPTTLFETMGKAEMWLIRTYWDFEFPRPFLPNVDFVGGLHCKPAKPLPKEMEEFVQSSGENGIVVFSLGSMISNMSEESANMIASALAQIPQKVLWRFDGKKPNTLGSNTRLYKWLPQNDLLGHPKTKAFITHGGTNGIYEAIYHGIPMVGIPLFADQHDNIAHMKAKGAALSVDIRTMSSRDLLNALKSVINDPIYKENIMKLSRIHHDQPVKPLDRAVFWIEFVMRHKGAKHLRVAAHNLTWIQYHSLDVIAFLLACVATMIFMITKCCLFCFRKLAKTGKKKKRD

[2] = molecular target: T2, UGT2B7 (Homo sapiens, UniProt P16662); experiment: as above; format: biochemical; conditions: pH 7.4, probe 4-methylumbelliferone (4-MU), 350 μM, 100 μM compound, 4-MU probe substrate, negative = activation
T2 construct: purchased BD Gentest Corp. (Woburn, MA, USA); host or cells: baculovirus-infected insect cells
T2 sequence (P16662 24-529): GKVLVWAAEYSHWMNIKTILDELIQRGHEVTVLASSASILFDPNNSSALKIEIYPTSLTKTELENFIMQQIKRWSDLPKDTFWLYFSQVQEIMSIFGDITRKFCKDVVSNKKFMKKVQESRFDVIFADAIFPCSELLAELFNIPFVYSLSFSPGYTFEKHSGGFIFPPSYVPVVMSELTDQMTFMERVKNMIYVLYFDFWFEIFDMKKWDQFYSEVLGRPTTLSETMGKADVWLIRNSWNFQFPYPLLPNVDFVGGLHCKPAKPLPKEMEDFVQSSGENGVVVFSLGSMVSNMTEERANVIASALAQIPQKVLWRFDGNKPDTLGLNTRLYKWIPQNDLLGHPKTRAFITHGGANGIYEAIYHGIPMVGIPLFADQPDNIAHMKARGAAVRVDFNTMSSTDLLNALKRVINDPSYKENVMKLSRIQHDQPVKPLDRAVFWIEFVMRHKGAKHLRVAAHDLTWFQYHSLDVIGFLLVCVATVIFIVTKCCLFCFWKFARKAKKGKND

Row | inhibition at 120 min, 100 µM [1] | inhibition at 120 min, 100 µM [2] | Compound
1 | 48.6% | 31.8% | O=c1c2cc(O)c(O)cc2oc2cc(O)cc(O)c12 [NTR, 1,3,6,7-tetrahydroxyxanthone]
2 | -106% | -11.2% | O=c1c2cc(O)c(O)cc2oc2cc(O)c([C@@H]3O[C@H](CO)[C@@H](O)[C@H](O)[C@H]3O)c(O)c12 [MGF, 1,3,6,7-tetrahydroxyxanthone-C-2-β-D-glucoside]

— PMC6152678, “In Vitro Comparative Study of the Inhibitory Effects of Mangiferin and Its Aglycone Norathyriol towards UDP-Glucuronosyl Transferase (UGT) Isoforms” (Molecules : A Journal of Synthetic Chemistry and Natural …, 2017)
